Data: US10358463B2, “Immunomodulators” (BRISTOL-MYERS SQUIBB COMPANY, priority 2016, dated 2019)
Numbered stars: 1 amine (or outer) side, 2 acyl side, 3 side chain; on linkers, the order of the positions; unused ones are H or OH. Bridge positions count the residues as written; N and C are the ends. Square brackets hold non-standard residues; d marks the D form. Peptide text beside a SMILES is read from it. ξ: configuration not given here. Trp(4-aza,1-CH2COOH) = N[C@@H](Cc1cn(CC(=O)O)c2cccnc12)C(=O)O; Trp(7-aza,1-CH2COOH) = N[C@@H](Cc1cn(CC(=O)O)c2ncccc12)C(=O)O; X10 = COc1ccc2c(c1)c(C[C@H](N[*:1])C(=O)[*:2])cn2CC(=O)O; X5 = O=C(O)Cn1nc(C[C@H](N[*:1])C(=O)[*:2])c2ccccc21; Trp(5-CN) = N#Cc1ccc2[nH]cc(C[C@H](N)C(=O)O)c2c1; X2 = O=C(O)Cc1cn(CC(N[*:1])C(=O)[*:2])c2cccnc12; X8 = O=C(O)Cn1cc(CC(N[*:1])C(=O)[*:2])c2cncnc21; X9 = O=C(O)Cn1cc(CC(N[*:1])C(=O)[*:2])c2cnccc21; X15 = O=C([C@H](Cc1n[nH]c2ccccc12)N[*:1])[*:2]; X4 = Cc1cccc2c(CC(N[*:1])C(=O)[*:2])n[nH]c12; Hyp = O=C(O)[C@@H]1C[C@@H](O)CN1; NMeNle = CCCC[C@H](NC)C(=O)O; NMeA = CN[C@@H](C)C(=O)O; Dab = NCC[C@H](N)C(=O)O; Dap = NC[C@H](N)C(=O)O; ξP = O=C(O)C1CCCN1

Molecular target: T1, PD-1-Ig binding to PD-L1-TVMV-His (PD-L1-His) (Homo sapiens, UniProt Q9NZQ7)
T1 construct: hPDL1 (19-239)-TVMV-His; TVMV protease cleavage site (C); made in house; host or cells: HEK293T cells
T1 sequence (Q9NZQ7 with tags, fused parts or gaps): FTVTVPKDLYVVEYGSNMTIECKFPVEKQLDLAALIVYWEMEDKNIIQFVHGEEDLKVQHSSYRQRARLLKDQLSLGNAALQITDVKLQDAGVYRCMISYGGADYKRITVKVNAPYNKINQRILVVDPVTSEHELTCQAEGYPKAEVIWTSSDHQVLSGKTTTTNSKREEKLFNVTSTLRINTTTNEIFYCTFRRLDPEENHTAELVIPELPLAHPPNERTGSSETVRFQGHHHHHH
Assay: PD-1/PD-L1 Homogenous Time-Resolved Fluorescence (HTRF) binding assay
Conditions: PD-1-Ig (20 nM)/PD-L1-His (10 nM)
Source text: The ability of the macrocyclic peptides of the present disclosure to bind to PD-L1 was investigated using a PD-1/PD-L1 Homogenous Time-Resolved Fluorescence (HTRF) binding assay.
Homogenous Time-Resolved Fluorescence (HTRF) Assays of Binding of Soluble PD-1 to Soluble PD-L1. Soluble PD-1 and soluble PD-L1 refers to proteins with carboxyl-end truncations that remove the transmembrane-spanning regions and are fused to heterologous sequences, specifically the Fc portion of the human immunoglobuling G sequence (Ig) or the hexahistidine epitope tag (His). All binding studies were performed in an HTRF assay buffer consisting of dPBS supplemented with 0.1% (w/v) bovine serum albumin and 0.05% (v/v) Tween-20. For the PD-1-Ig/PD-L1-His binding assay, inhibitors were pre-incubated with PD-L1-His (10 nM final) for 15 m in 4 μl of assay buffer, followed by addition of PD-1-Ig (20 nM final) in 1 μl of assay buffer and further incubation for 15 m. PD-L1 fusion proteins from either human, cynomologous macaques, mouse, or other species were used. HTRF detection was achieved using europium crypate-labeled anti-Ig monoclonal antibody (1 nM final) and allophycocyanin (APC) labeled anti-His monoclonal antibody (20 nM final). Antibodies were diluted in HTRF detection buffer and 5 μl was dispensed on top of binding reaction. The reaction was allowed to equilibrate for 30 minutes and signal (665 nm/620 nm ratio) was obtained using an EnVision fluorometer. Additional binding assays were established between PD-1-Ig/PD-L2-His (20 and 5 nM, respectively), CD80-His/PD-L1-Ig (100 and 10 nM, respectively) and CD80-His/CTLA4-Ig (10 and 5 nM, respectively). Binding/competition studies between biotinylated Compound No. 71 and human PD-L1-His were performed as follows. Macrocyclic peptide inhibitors were pre-incubated with PD-L1-His (10 nM final) for 60 minutes in 4 μl of assay buffer followed by addition of biotinylated Compound No. 71 (0.5 nM final) in 1 μl of assay buffer. Binding was allowed to equilibrate for 30 minutes followed by addition of europium crylated labeled Streptavidin (2.5 pM final) and APC-labeled anti-His (20 nM final) in 5 μl of HTRF buffer. The reaction was allowed to equilibrate for 30 m and signal (665 nm/620 nm ratio) was obtained using an EnVision fluorometer.
Recombinant Proteins. Carboxyl-truncated human PD-1 (amino acids 25-167) with a C-terminal human Ig epitope tag [hPD-1 (25-167)-3S-IG] and human PD-L1 (amino acids 18-239) with a C-terminal His epitope tag [hPD-L1(19-239)-tobacco vein mottling virus protease cleavage site (TVMV)-His] were expressed in HEK293T cells and purified sequentially by recombinant Protein A affinity chromatography and size exclusion chromatography. Human PD-L2-His (Sino Biologicals), CD80-His (Sino Biologicals), CTLA4-Ig (RnD Systems) were all obtained through commercial sources.

Compound	IC50 (range class)	IC50 (numeric value)
CCCC[C@H]1C(=O)N(C)[C@@H](CCCC)C(=O)N[C@@H](CC(C)C)C(=O)N[C@H](C(=O)NCC(N)=O)CSCC(=O)N[C@@H](Cc2ccc(O)cc2)C(=O)N(C)[C@@H](C)C(=O)N[C@@H](CC(N)=O)C(=O)N2CCC[C@H]2C(=O)N[C@@H](CN)C(=O)N[C@@H](CC(C)C)C(=O)N2C[C@H](O)C[C@H]2C(=O)N[C@@H](Cc2c[nH]c3ccccc23)C(=O)N[C@@H](CCN)C(=O)NC(Cc2cn(CC(=O)O)c3ccncc23)C(=O)N1C (stereo partly drawn) [Example 10001] ({CH2CO}-Y[NMeA]NP[Dap]L[Hyp]W[Dab][X9][NMeNle][NMeNle]LCG-NH2; thioether N-14)	10 to 99 nM	–
CCCC[C@H]1C(=O)N(C)[C@@H](CCCC)C(=O)N[C@@H](CC(C)C)C(=O)N[C@H](C(=O)NCC(N)=O)CSCC(=O)N[C@@H](Cc2ccc(O)cc2)C(=O)N(C)[C@@H](C)C(=O)N[C@@H](CC(N)=O)C(=O)N2CCC[C@H]2C(=O)N[C@@H](CN)C(=O)N[C@@H](CC(C)C)C(=O)N2C[C@H](O)C[C@H]2C(=O)N[C@@H](Cc2c[nH]c3ccccc23)C(=O)N[C@@H](CCN)C(=O)NC(Cc2cn(CC(=O)O)c3ncncc23)C(=O)N1C (stereo partly drawn) [Example 10002] ({CH2CO}-Y[NMeA]NP[Dap]L[Hyp]W[Dab][X8][NMeNle][NMeNle]LCG-NH2; thioether N-14)	100 to 990 nM	–
CCCC[C@H]1C(=O)N(C)[C@@H](CCCC)C(=O)N[C@@H](CC(C)C)C(=O)N[C@H](C(=O)NCC(N)=O)CSCC(=O)N[C@@H](Cc2ccc(O)cc2)C(=O)N(C)[C@@H](C)C(=O)N[C@@H](CC(N)=O)C(=O)N2CCC[C@H]2C(=O)N[C@@H](CN)C(=O)N[C@@H](CC(C)C)C(=O)N2C[C@H](O)C[C@H]2C(=O)N[C@@H](Cc2c[nH]c3ccccc23)C(=O)N[C@@H](CCN)C(=O)NC(Cn2cc(CC(=O)O)c3ncccc32)C(=O)N1C (stereo partly drawn) [Example 10003] ({CH2CO}-Y[NMeA]NP[Dap]L[Hyp]W[Dab][X2][NMeNle][NMeNle]LCG-NH2; thioether N-14)	100 to 990 nM	–
CCCC[C@H]1C(=O)N(C)[C@@H](CCCC)C(=O)N[C@@H](CC(C)C)C(=O)N[C@H](C(N)=O)CSCC(=O)N[C@@H](Cc2ccc(O)cc2)C(=O)N(C)[C@@H](C)C(=O)N[C@@H](CC(N)=O)C(=O)N2CCC[C@H]2C(=O)N[C@@H](CN)C(=O)N[C@@H](CC(C)C)C(=O)N2C[C@H](O)C[C@H]2C(=O)N[C@@H](Cc2c[nH]c3ccccc23)C(=O)N[C@@H](CCN)C(=O)N[C@@H](Cc2nn(CC(=O)O)c3ccccc23)C(=O)N1C [Example 10501] ({CH2CO}-Y[NMeA]NP[Dap]L[Hyp]W[Dab][X5][NMeNle][NMeNle]LC-NH2; thioether N-14)	1 to 9.9 nM	–
CCCC[C@H]1C(=O)N(C)[C@@H](CCCC)C(=O)N[C@@H](CC(C)C)C(=O)N[C@H](C(N)=O)CSCC(=O)N[C@@H](Cc2ccc(O)cc2)C(=O)N(C)[C@@H](C)C(=O)N[C@@H](CC(N)=O)C(=O)N2CCC[C@H]2C(=O)N[C@@H](CN)C(=O)N[C@@H](CC(C)C)C(=O)N2C[C@H](O)C[C@H]2C(=O)N[C@@H](Cc2c[nH]c3ccccc23)C(=O)N[C@@H](CCN)C(=O)N[C@@H](Cc2cn(CC(=O)O)c3cccnc23)C(=O)N1C [Example 10502] ({CH2CO}-Y[NMeA]NP[Dap]L[Hyp]W[Dab][Trp(4-aza,1-CH2COOH)][NMeNle][NMeNle]LC-NH2; thioether N-14)	–	13 nM
CCCC[C@H]1C(=O)N(C)[C@@H](CCCC)C(=O)N[C@@H](CC(C)C)C(=O)N[C@H](C(N)=O)CSCC(=O)N[C@@H](Cc2ccc(O)cc2)C(=O)N(C)[C@@H](C)C(=O)N[C@@H](CC(N)=O)C(=O)N2CCC[C@H]2C(=O)N[C@@H](CN)C(=O)N[C@@H](CC(C)C)C(=O)N2C[C@H](O)C[C@H]2C(=O)N[C@@H](Cc2c[nH]c3ccccc23)C(=O)N[C@@H](CCN)C(=O)N[C@@H](Cc2cn(CC(=O)O)c3ccc(OC)cc23)C(=O)N1C [Example 10503] ({CH2CO}-Y[NMeA]NP[Dap]L[Hyp]W[Dab][X10][NMeNle][NMeNle]LC-NH2; thioether N-14)	1 to 9.9 nM	–
CCCC[C@H]1C(=O)N(C)[C@@H](CCCC)C(=O)N[C@@H](CC(C)C)C(=O)N[C@H](C(N)=O)CSCC(=O)N[C@@H](Cc2ccc(O)cc2)C(=O)N(C)[C@@H](C)C(=O)N[C@@H](CC(N)=O)C(=O)N2CCC[C@H]2C(=O)N[C@@H](CN)C(=O)N[C@@H](CC(C)C)C(=O)N2C[C@H](O)C[C@H]2C(=O)N[C@@H](Cc2c[nH]c3ccccc23)C(=O)N[C@@H](CCN)C(=O)N[C@@H](Cc2cn(CC(=O)O)c3ncccc23)C(=O)N1C [Example 10504] ({CH2CO}-Y[NMeA]NP[Dap]L[Hyp]W[Dab][Trp(7-aza,1-CH2COOH)][NMeNle][NMeNle]LC-NH2; thioether N-14)	1 to 9.9 nM	–
CCCC[C@H]1C(=O)N(C)[C@@H](CCCC)C(=O)N[C@@H](CC(C)C)C(=O)N[C@H](C(=O)NCC(N)=O)CSCC(=O)N[C@@H](Cc2ccc(O)cc2)C(=O)N(C)[C@@H](C)C(=O)N[C@@H](CC(N)=O)C(=O)N2CCC[C@H]2C(=O)N[C@@H](CN)C(=O)N[C@@H](CC(C)C)C(=O)N2C[C@H](O)C[C@H]2C(=O)N[C@@H](Cc2c[nH]c3ccccc23)C(=O)N[C@@H](CCN)C(=O)N[C@@H](Cc2cn(CC(=O)O)c3ncccc23)C(=O)N1C [Example 10505] ({CH2CO}-Y[NMeA]NP[Dap]L[Hyp]W[Dab][Trp(7-aza,1-CH2COOH)][NMeNle][NMeNle]LCG-NH2; thioether N-14)	10 to 99 nM	–

Further lines, results first:

IC50 (range class)	IC50 (numeric value)	Compound
100 to 990 nM	–	CCCC[C@H]1C(=O)N(C)[C@@H](CCCC)C(=O)N[C@@H](C)C(=O)N[C@H](C(=O)NCC(N)=O)CSCC(=O)N[C@@H](Cc2ccc(O)cc2)C(=O)N(C)[C@@H](C)C(=O)N[C@@H](CC(N)=O)C(=O)N2CCCC2C(=O)N[C@@H](Cc2cnc[nH]2)C(=O)N[C@@H](CCC(N)=O)C(=O)N2C[C@H](O)C[C@H]2C(=O)N[C@@H](Cc2c[nH]c3ccccc23)C(=O)N[C@@H](CO)C(=O)N[C@@H](Cc2c[nH]c3ccc(C#N)cc23)C(=O)N1C (stereo partly drawn) [Example 1284] ({CH2CO}-Y[NMeA]N[ξP]HQ[Hyp]WS[Trp(5-CN)][NMeNle][NMeNle]ACG-NH2; thioether N-14)
100 to 990 nM	–	CCCC[C@H]1C(=O)N(C)[C@@H](CCCC)C(=O)N[C@@H](C)C(=O)N[C@H](C(=O)NCC(N)=O)CSCC(=O)N[C@@H](Cc2ccc(O)cc2)C(=O)N(C)[C@@H](C)C(=O)N[C@@H](CC(N)=O)C(=O)N2CCCC2C(=O)N[C@@H](Cc2cnc[nH]2)C(=O)N[C@@H](CCC(N)=O)C(=O)N2C[C@H](O)C[C@H]2C(=O)N[C@@H](Cc2c[nH]c3ccccc23)C(=O)N[C@@H](CO)C(=O)N[C@@H](Cc2n[nH]c3ccccc23)C(=O)N1C (stereo partly drawn) [Example 1286] ({CH2CO}-Y[NMeA]N[ξP]HQ[Hyp]WS[X15][NMeNle][NMeNle]ACG-NH2; thioether N-14)
–	7140 nM	CCCC[C@H]1C(=O)N(C)[C@@H](CCCC)C(=O)N[C@@H](C)C(=O)N[C@H](C(=O)NCC(N)=O)CSCC(=O)N[C@@H](Cc2ccc(O)cc2)C(=O)N(C)[C@@H](C)C(=O)N[C@@H](CC(N)=O)C(=O)N2CCCC2C(=O)N[C@@H](Cc2cnc[nH]2)C(=O)N[C@@H](CCC(N)=O)C(=O)N2C[C@H](O)C[C@H]2C(=O)N[C@@H](Cc2c[nH]c3ccccc23)C(=O)N[C@@H](CO)C(=O)NC(Cc2n[nH]c3c(C)cccc23)C(=O)N1C (stereo partly drawn) [Example 1288] ({CH2CO}-Y[NMeA]N[ξP]HQ[Hyp]WS[X4][NMeNle][NMeNle]ACG-NH2; thioether N-14)
1 to 9.9 nM	–	CCCC[C@H]1C(=O)N(C)[C@@H](CCCC)C(=O)N[C@@H](CC(C)C)C(=O)N[C@H](C(=O)NCC(N)=O)CSCC(=O)N[C@@H](Cc2ccc(O)cc2)C(=O)N(C)[C@@H](C)C(=O)N[C@@H](CC(N)=O)C(=O)N2CCC[C@H]2C(=O)N[C@@H](CN)C(=O)N[C@@H](CC(C)C)C(=O)N2C[C@H](O)C[C@H]2C(=O)N[C@@H](Cc2c[nH]c3ccccc23)C(=O)N[C@@H](CCN)C(=O)N[C@@H](Cc2nn(CC(=O)O)c3ccccc23)C(=O)N1C [Example 10500] ({CH2CO}-Y[NMeA]NP[Dap]L[Hyp]W[Dab][X5][NMeNle][NMeNle]LCG-NH2; thioether N-14)
